Measured values published in US11472778B2, “Hepatitis C virus NS3/4A protease inhibitors” (priority 2017, dated 2022).
Like-named read-outs stand apart in the source and are kept apart here.

Legend:
[1] = target: T1, GT1a D168A NS3/4A protease (UniProt P27958, D1194A, species not given); format: biochemical, Hepatitis C virus
T1 construct: rows headed: Ki (nM) D168A; Ki D168A; other: D168A variant
Outline: (§1)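 NS3/4A protease (2 nM; wild-type GT1a or D168A) pre-incubated 1 h at room temperature with increasing inhibitor in 50 mM Tris pH 7.5, 5% glycerol, 10 mM DTT, 0.6 mM LDAO, 4% DMSO. Ki from three independent data sets per construct; ΔG=RTlnKi.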

[2] = target: T2, wild-type GT1a NS3/4A protease (UniProt P27958); format: biochemical, Hepatitis C virus
T2 construct: Ki WT; other: wild-type HCV NS3/4A protease
Outline: as §1

[3] = target: GT1a D168A NS3/4A protease; format: biochemical, Hepatitis C virus; conditions: for Ki (Fold Change) D168A: Table 6, with respect to GT1a wild-type
Outline: as §1

[4] = tested on: drug resistant HCV variants (R155K, A156T, D168A, D168V); experiment: Replicon antiviral assays, collective statements on drug resistant variants; format: cell-based, Hepatitis C virus; conditions: range over all variants tested
Protocol: Mutations (R155K, A516T, D168A and D168V) were constructed by site-directed mutagenesis using a Con1 (genotype 1b) luciferase reporter replicon containing the H77 (genotype 1a) NS3 sequence.
Replicon RNA of each protease variant was introduced into Huh7 cells by electroporation. Replication was then assessed in the presence of increasing concentrations of protease inhibitors by measuring luciferase activity (relative light units) 96 h after electroporation.
Mutations (R155K, D168A and A156T) were constructed by site-directed mutagenesis using a Con1 (genotype 1b) luciferase reporter replicon containing the H77 (genotype 1a) NS3 sequence.^6 Replicon RNA of each protease variant was introduced into Huh7 cells by electroporation. Replication was then assessed in the presence of increasing concentrations of protease inhibitors by measuring luciferase activity (relative light units) 96 h after electroporation.

[5] = tested on: HCV replicon D168V variant in Huh7 cells; experiment: microbe, parasite or virus in culture; format: cell-based, Hepatitis C virus; conditions: for EC50: Hepatitis C virus
Outline: (§2)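 Huh7, electroporated w/ Con1 (gt1b) luc replicon RNA carrying H77 (gt1a) NS3; mutants by site-directed mutagenesis. Increasing PI concentrations; luciferase (RLU) read 96 h post-electroporation.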

[6] = tested on: HCV replicon D168A variant in Huh7 cells; experiment: microbe, parasite or virus in culture; format: cell-based, Hepatitis C virus; conditions: for EC50: Hepatitis C virus
Outline: as §2

[7] = tested on: HCV replicon A156T variant in Huh7 cells; experiment: microbe, parasite or virus in culture; format: cell-based, Hepatitis C virus; conditions: for EC50: Hepatitis C virus
Outline: as §2

[8] = tested on: HCV replicon R155K variant in Huh7 cells; experiment: microbe, parasite or virus in culture; format: cell-based, Hepatitis C virus; conditions: for EC50: Hepatitis C virus
Outline: as §2

[9] = tested on: wild-type HCV replicon in Huh7 cells; experiment: Cell-based drug susceptibility (replicon) assay, wild-type; conditions: Hepatitis C virus, read-out: Replicon EC50 (nM) WT
Outline: as §2

[10] = target: GT1a R155K NS3/4A protease; format: biochemical, Hepatitis C virus; conditions: fold change in Ki, R155K relative to WT
Outline: (§3)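 2 nM NS3/4A protease (GT1a, R155K and D168A constructs) pre-incubated 1 h at room temperature with increasing inhibitor concentrations in 50 mM Tris pH 7.5, 5% glycerol, 10 mM DTT, 0.6 mM LDAO, 4% DMSO. Three independent data sets per inhibitor and construct; ΔG of binding derived from Ki as ΔG=RTlnKi.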

[11] = target: GT1a R155K NS3/4A protease (UniProt P27958, R1181K, species not given); format: biochemical, Hepatitis C virus
Outline: as §3

[12] = target: T3, GT1a D168A NS3/4A protease (UniProt P27958, C1185S/D1194A, species not given); format: biochemical, Hepatitis C virus; conditions: read-out: Ki (nM) D168A; Table 6; P4/P4-P5 modified macrocycles
T3 construct: P4/P4-P5 modified macrocycles
Outline: as §1

[13] = target: T4, wild-type GT1a NS3/4A protease (UniProt P27958, C1185S, species not given); format: biochemical, Hepatitis C virus; conditions: read-out: Ki (nM) GT1a WT NS3/4A Protease
T4 construct: Ki (nM) GT1a WT NS3/4A Protease
Outline: as §1

[14] = target: T5, GT1a D168A NS3/4A protease (UniProt P27958, C1185S/D1194A, species not given); format: biochemical, Hepatitis C virus; conditions: read-out: Ki (nM) GT1a D168A NS3/4A Protease
T5 construct: Ki (nM) GT1a D168A NS3/4A Protease
Outline: as §1

[15] = target: T6, wild-type GT1a NS3/4A protease (UniProt P27958, C1185S, species not given); format: biochemical, Hepatitis C virus; conditions: read-out: Ki (nM) GT1a WT; Table 6; P4/P4-P5 modified macrocycles
T6 construct: P4/P4-P5 modified macrocycles
Outline: as §1

GT3a NS3/4A protease = target: T7, GT3a NS3/4A protease (Hepatitis C virus genotype 3a, UniProt Q81495); experiment: biochemical
T7 construct: drug-resistant variant D168A, and GT3a NS3/4A protease; made in house; host or cells: Escherichia coli BL21(DE3)
T7 sequence (Q81495 1033-1214): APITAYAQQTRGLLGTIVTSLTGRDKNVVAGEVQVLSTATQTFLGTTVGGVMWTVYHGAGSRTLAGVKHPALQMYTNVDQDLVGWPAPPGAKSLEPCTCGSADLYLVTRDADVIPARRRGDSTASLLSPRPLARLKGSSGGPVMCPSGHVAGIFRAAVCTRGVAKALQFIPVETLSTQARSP
Outline: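 Protease at 2 nM pre-incubated 1 h at room temperature with increasing inhibitor concentrations in 50 mM Tris, 5% glycerol, 10 mM DTT, 0.6 mM LDAO, 4% DMSO. Three independent data sets per inhibitor and construct.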

[16] = rcm bond; 15-membered ring; Zhan 1b; 1,2-DCE; 6.3 mM; 70.0 °C
[17] = Table 4, relative to WT replicon

C=C[C@@H]1C[C@]1(NC(=O)[C@@H]1C[C@@H](Oc2nc3cc(OC)ccc3nc2C)CN1C(=O)[C@@H](NC(=O)OC1CCCC1)C(C)(C)C)C(=O)NS(=O)(=O)C1(C)CC1 [Compound 12b, Cyclopentyl ((S)-1-((2S,4R)-4-((7-methoxy-3-methylquinoxalin-2-yl)oxy)-2-(((1R,2S)-1-(((1-methylcyclopropyl)sulfonyl)carbamoyl)-2-vinylcyclopropyl)carbamoyl)pyrrolidin-1-yl)-3,3-dimethyl-1-oxobutan-2-yl)carbamate]
Ki ([1]; read-out: Ki (nM) D168A, Table 8, linear inhibitors): 140 ± 13 nM | Ki ([1]; read-out: Ki D168A, D168A variant): 140 ± 13 nM | Ki ([2]; read-out: Ki (nM) WT, Table 8, linear inhibitors): 7.1 ± 1.1 nM | Ki ([2]; read-out: Ki WT, wild-type HCV NS3/4A protease): 7.1 ± 1.1 nM | Ki D168A (fold change) ([3]; fold change in Ki, D168A relative to WT): 20 | fold loss in replicon potency against drug resistant variants compared to WT [4]: 5-20 fold | EC50 ([5]; Huh-7, read-out: Replicon EC50 (nM) D168V, Table 9): 59 nM | Replicon EC50 (Fold change) D168V ([5]; Table 9, relative to WT): (13) fold | EC50 ([6]; Huh-7, read-out: Replicon EC50 (nM) D168A, Table 9): 45 nM | Replicon EC50 (Fold change) D168A ([6]; Table 9, relative to WT): (10) fold | EC50 ([7]; Huh-7, read-out: Replicon EC50 (nM) A156T, Table 9): 87 nM | Replicon EC50 (Fold change) A156T ([7]; Table 9, relative to WT): (19) fold | EC50 ([8]; Huh-7, read-out: Replicon EC50 (nM) R155K, Table 9): 28 nM | Replicon EC50 (Fold change) R155K ([8]; Table 9, relative to WT): (6.2) fold | EC50 ([9]; Huh-7, Table 9): 4.5 nM | Ki R155K (fold change) [10]: 1.4 | Ki ([11]; read-out: Ki (nM) R155K, Table 8, linear inhibitors): 10 ± 1.3 nM | Ki ([11]; read-out: Ki R155K, R155K variant): 10 ± 1.3 nM

COc1ccc2nc(C)c(O[C@@H]3C[C@H]4C(=O)N[C@]5(C(=O)NS(=O)(=O)C6(C)CC6)C[C@H]5/C=C\CCCCC[C@H](NC(=O)OC(C)(C)C)C(=O)N4C3)nc2c1 [Compound 19b, tert-Butyl ((2R,6S,13aS,14aR,16aS,Z)-2-((7-methoxy-3-methylquinoxalin-2-yl)oxy)-14a-(((1-methylcyclopropyl)sulfonyl)carbamoyl)-5,16-dioxo-1,2,3,5,6,7,8,9,10,11,13a,14,14a,15,16,16a-hexadecahydrocyclopropa[e]pyrrolo[1,2-a][1,4]diazacyclopentadecin-6-yl)carbamate]
Ki (Fold change) GT1a D168A NS3/4A Protease ([3]; Table 3, Ki D168A relative to GT1a WT): (14) fold | Ki (Fold Change) D168A [3]: (14) fold | Ki [12]: 52 nM | Ki ([13]; Table 1): 3.6 nM | Ki ([13]; Table 3): 3.6 nM | Ki ([14]; Table 1): 52 nM | Ki ([14]; Table 3): 52 ± 2.4 nM | Ki [15]: 3.6 nM | Ki (GT3a NS3/4A protease): 119 nM | Ki (Fold change) GT3a NS3/4A Protease (GT3a NS3/4A protease; Table 3, Ki GT3a relative to GT1a WT): (33) fold | Ki (GT3a NS3/4A protease; read-out: Ki (nM) GT3a NS3/4A Protease, Table 3): 119 ± 18 nM | ring closure, isolated yield [16]: 70% | EC50 ([5]; Huh-7, 96 h, read-out: Replicon EC50 (nM) D168V, Table 2, Huh7 cells, luciferase 96 h): 1.6 nM | EC50 ([5]; Huh-7, read-out: Replicon EC50 (nM) D168V, Table 4): 1.6 nM | Replicon EC50 (Fold change) D168V [5, 17]: (5) fold | EC50 ([6]; Huh-7, 96 h, read-out: Replicon EC50 (nM) D168A, Table 2, Huh7 cells, luciferase 96 h): 2.37 nM | EC50 ([6]; Huh-7, read-out: Replicon EC50 (nM) D168A, Table 4): 2.37 nM | Replicon EC50 (Fold change) D168A [6, 17]: (8) fold | EC50 ([7]; Huh-7, 96 h, read-out: Replicon EC50 (nM) A156T, Table 2, Huh7 cells, luciferase 96 h): 1.57 nM | EC50 ([7]; Huh-7, read-out: Replicon EC50 (nM) A156T, Table 4): 1.57 nM | Replicon EC50 (Fold change) A156T [7, 17]: (5) fold | EC50 ([8]; Huh-7, 96 h, read-out: Replicon EC50 (nM) R155K, Table 2, Huh7 cells, luciferase 96 h): 0.8 nM | EC50 ([8]; Huh-7, read-out: Replicon EC50 (nM) R155K, Table 4): 0.8 nM | Replicon EC50 (Fold change) R155K [8, 17]: (3) fold | EC50 ([9]; Huh-7, 96 h, Table 2, Huh7 cells, luciferase 96 h): 0.3 nM | EC50 ([9]; Huh-7, Table 4): 0.3 nM

COc1ccc2nc(C)c(O[C@@H]3C[C@H]4C(=O)N[C@]5(C(=O)NS(=O)(=O)C6(C)CC6)C[C@H]5/C=C\CCCCC[C@H](NC(=O)OC5(C)CCCC5)C(=O)N4C3)nc2c1 [Compound P4-3, 1-methylcyclopentyl ((2R,6S,13aS,14aR,16aS,Z)-2-((7-methoxy-3-methylquinoxalin-2-yl)oxy)-14a-(((1-methylcyclopropyl)sulfonyl)carbamoyl)-5,16-dioxo-1,2,3,5,6,7,8,9,10,11,13a,14,14a,15,16,16a-hexadecahydrocyclopropa[e]pyrrolo[1,2-a][1,4]diazacyclopentadecin-6-yl)carbamate]
Ki (Fold Change) D168A [3]: (9) fold | Ki [12]: 16 nM | Ki [15]: 1.78 ± 0.3 nM

CC[C@H](C)[C@H](NC(C)=O)C(=O)N[C@H]1CCCCC/C=C\[C@@H]2C[C@@]2(C(=O)NS(=O)(=O)C2(C)CC2)NC(=O)[C@@H]2C[C@@H](Oc3nc4cc(OC)ccc4nc3C)CN2C1=O [Compound P4-P5-6, (2R,6S,13aS,14aR,16aS,Z)-6-((2S,3S)-2-acetamido-3-methylpentanamido)-2-((7-methoxy-3-methylquinoxalin-2-yl)oxy)-N-((1-methylcyclopropyl)sulfonyl)-5,16-dioxo-1,2,3,6,7,8,9,10,11,13a,14,15,16,16a-tetradecahydrocyclopropa[e]pyrrolo[1,2-a][1,4]diazacyclopentadecine-14a(5H)-carboxamide]
Ki (Fold Change) D168A [3]: (11) fold | Ki [12]: 81 ± 11 nM | Ki [15]: 7.1 ± 0.24 nM

COC(=O)N[C@H](C(=O)N[C@H]1CCCCC/C=C\[C@@H]2C[C@@]2(C(=O)NS(=O)(=O)C2(C)CC2)NC(=O)[C@@H]2C[C@@H](Oc3nc4cc(OC)ccc4nc3C)CN2C1=O)C(C)(C)C [Compound P4-P5-1, Methyl ((S)-1-(((2R,6S,13aS,14aR,16aS,Z)-2-((7-methoxy-3-methylquinoxalin-2-yl)oxy)-14a-(((1-methylcyclopropyl)sulfonyl)carbamoyl)-5,16-dioxo-1,2,3,5,6,7,8,9,10,11,13a,14,14a,15,16,16a-hexadecahydrocyclopropa[e]pyrrolo[1,2-a][1,4]diazacyclopentadecin-6-yl)amino)-3,3-dimethyl-1-oxobutan-2-yl)carbamate]
Ki (Fold Change) D168A [3]: (8) fold | Ki [12]: 201 ± 15 nM | Ki [15]: 29.5 nM
